What was measured:
[1] = tested on: durch Apomorphin verursachten Kletterns; assay: Inhibition of apomorphine-induced climbing in mice (apomorphine antagonism); assay type: in vivo, Mäusen; details: test substance given 30 min (i.p.) or 60 min (p.o.) before apomorphine, dose of test substance not given
Procedure: Test auf biologische Aktivität von Pseurotin A und D: • Die Wirkung der Verbindungen der Formel I und 11 als Apomorphin Antagonisten wird an Mäusen getestet. Hierzu wird zunächst Apomorphin als 1 %ige Lösung (Verdünnungsmittel: Tylose, z. B. Methocel, Hoechst AG, Frankfurt, Deutschland)) einmalig […] injiziert. Die Dosis ist so gewählt, daß sie bei 95 % der Mäuse für ca. 30 Minuten eine anhaltende Klettertätigkeit auslöst (1,5 mg Apomorphin/kg Maus; subcutane Injektion). Tiere, die noch vor der Apomorphingabe eine konstante Klettertätigkeit aufweisen, werden nicht im Test berücksichtigt. Pseurotin A und/oder D wird 30 bzw. 60 Min. vor Apomorphin appliziert (i.p. bzw. p.o.). Es wird viermal abgelesen: unmittelbar vor sowie 10,20 und 30 Min. nach Apomorphin-Injektion. Dabei wird das Kletterverhalten pro Maus beurteilt: • Testkriterium ist, ob eine Hemmung des durch Apomorphin verursachten Kletterns eintritt.

[2] = Solubility in organic solvents; assay type: physicochemical; details: in CH2C12, CHCl3, Essigsäureethylester, Aceton, Ethanol und Isopropanol; isolated as amorphous solid
From the text: Die Pseurotine A und D wurden als amorpher Feststoff isoliert und sind z.B. löslich in CH2C12, CHCl3, Essigsäureethylester, Aceton, Ethanol und Isopropanol.

[3] = Stability in the solid state and in solution; assay type: physicochemical; details: for Stabilität im festen Zustand: solid state; for Stabilität in Lösungen: solutions, pH range between 3 and 8, in particular 5 and 7
From the text: Die Verbindungen der Formel 1 oder 11 ist im festen Zustand und in Lösungen im pH-Bereich zwischen 3 und 8, insbesondere 5 und 7, stabil und läßt sich damit in übliche galenische Zubereitungen einarbeiten.

[4] = 10 min after apomorphine (1,5 mg Apomorphin/kg Maus), seen in the majority (Mehrzahl) of treated mice
[5] = 20 min after apomorphine (1,5 mg Apomorphin/kg Maus)

CC/C=C\[C@H](O)[C@H](O)C1=C(C)C(=O)[C@]2(O1)C(=O)N[C@@](OC)(C(=O)c1ccccc1)[C@@H]2O [Pseurotin A]
Kletterverhalten pro Maus (Hemmung des durch Apomorphin verursachten Kletterns) [1, 4]: nur noch 1 oder 2 Pfoten an der Wand
Kletterverhalten pro Maus (Hemmung des durch Apomorphin verursachten Kletterns) [1, 5]: nahezu alle Tiere deutliche Symptome in Form der Kletterhemmung (4 Pfoten am Boden)
Löslichkeit [2]: löslich
Stabilität im festen Zustand [3]: stabil
Stabilität in Lösungen [3]: stabil

CCC(O)C=C[C@H](O)C1=C(C)C(=O)[C@]2(O1)C(=O)N[C@@](OC)(C(=O)c1ccccc1)[C@@H]2O (stereo partly shown) [Pseurotin D]
Kletterverhalten pro Maus (Hemmung des durch Apomorphin verursachten Kletterns) [1, 4]: nur noch 1 oder 2 Pfoten an der Wand
Kletterverhalten pro Maus (Hemmung des durch Apomorphin verursachten Kletterns) [1, 5]: nahezu alle Tiere deutliche Symptome in Form der Kletterhemmung (4 Pfoten am Boden)
Löslichkeit [2]: löslich
Stabilität im festen Zustand [3]: stabil
Stabilität in Lösungen [3]: stabil

From patent EP0546475A1, “Biologically active pseurotin A and D, new metabolites from Aspergillus fumigatus, process for their preparation and their use as apomorphine antagonists” (HOECHST AKTIENGESELLSCHAFT, priority 1991, dated 1993)
